One data set deals with c-Fyn-wt (Homo sapiens, UniProt P06241). In words: Inhibition of Src family kinase Fyn. Type of data set: biochemical. The method, then:
Experiments were performed to determine whether AB129 was capable of inhibiting the Src family kinase, Fyn. […] Such a compound would serve as a test compound for determining the importance of dual inhibition of CBR1 and protein kinases.

The target in data set [1] is T1, carbonyl reductase 1 (CBR1) (Homo sapiens, UniProt P16152).
T1 sequence (P16152 1-277): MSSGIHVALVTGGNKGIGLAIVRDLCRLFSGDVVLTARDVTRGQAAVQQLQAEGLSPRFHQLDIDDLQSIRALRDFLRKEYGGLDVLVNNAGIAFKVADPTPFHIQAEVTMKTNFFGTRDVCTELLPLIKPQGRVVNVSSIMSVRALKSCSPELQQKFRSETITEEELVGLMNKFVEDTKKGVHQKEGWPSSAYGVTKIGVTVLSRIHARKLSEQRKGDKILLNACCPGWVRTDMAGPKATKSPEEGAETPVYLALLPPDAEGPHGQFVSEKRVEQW
In words: CBR1 inhibition: menadione reduction, NADPH absorbance at 340 nm. Format: biochemical. Details: 6-His (N); made in house; host or cells: E. coli. On the procedure: CBR was expressed in E. coli and purified using glutathione beads; CBR has a naturally occurring. glutathione binding site. An N-terminal 6-His tagged protein was prepared to allow purification by metal affinity. Our CBR assay employs the synthetic substrate Menadione (2-methyl-1,4-naphthoquinone). Reaction progress is monitored by the decrease in NADPH-absorbance at 340 nm. Saturating concentrations of Menadione with variable concentrations of NADPH are employed in order to ascertain KI values.

The test system of another data set is adenocarcinoma cells. In words: Killing of adenocarcinoma cells in culture. Type of data set: cell-based. From the text:
In order to verify this assumption, the pyrazolopyrimidine RB2 and the analogous pyrrolopyrimidine RB5 were synthesized (FIG. 37). These compounds employ an R^2 isopropyl as opposed to the AB129 t-butyl because the Mitsunobu reaction used for RB5 synthesis is not amenable to t-butyl alkylation.

A further data set concerns the target 11β-HSD1 (Homo sapiens, UniProt P28845). The settings on record: Diederich et al. 2000; cited from earlier work.
For data set [2], the system named is A549 lung carcinoma cells. In words: A549 cell killing / viability.
Data set [3] concerns A549 lung carcinoma cells. Put plainly: Cell cycle of A549 cells.
Where [4] appears, read: Table 1, read-out: IC50 anti-c-Fyn-wt.
Setting [5] is: Table 1, read-out: IC50 anti-hCBR1.

SMILES strings stand for the structures. Read-outs that look alike come from different tables or passages of the source. Bounds are passed on as bounds.

A word on the IC50: it is the concentration at which inhibition is half-maximal.

c-Fyn-wt, sequence (P06241 whole entry): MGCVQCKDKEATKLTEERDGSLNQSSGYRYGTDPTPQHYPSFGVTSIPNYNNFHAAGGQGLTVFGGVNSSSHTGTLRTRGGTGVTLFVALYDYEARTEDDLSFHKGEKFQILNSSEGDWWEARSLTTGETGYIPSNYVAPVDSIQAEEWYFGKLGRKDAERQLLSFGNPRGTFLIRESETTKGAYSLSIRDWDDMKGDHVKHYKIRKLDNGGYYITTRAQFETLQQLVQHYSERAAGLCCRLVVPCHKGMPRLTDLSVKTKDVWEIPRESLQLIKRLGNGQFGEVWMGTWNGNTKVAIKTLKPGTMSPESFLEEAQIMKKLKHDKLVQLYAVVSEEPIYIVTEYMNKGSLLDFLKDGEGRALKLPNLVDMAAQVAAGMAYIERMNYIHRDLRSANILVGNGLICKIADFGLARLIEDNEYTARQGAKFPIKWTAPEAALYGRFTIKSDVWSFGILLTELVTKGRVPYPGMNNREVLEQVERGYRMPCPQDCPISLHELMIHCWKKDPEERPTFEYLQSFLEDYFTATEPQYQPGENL
11β-HSD1, sequence (P28845 whole entry): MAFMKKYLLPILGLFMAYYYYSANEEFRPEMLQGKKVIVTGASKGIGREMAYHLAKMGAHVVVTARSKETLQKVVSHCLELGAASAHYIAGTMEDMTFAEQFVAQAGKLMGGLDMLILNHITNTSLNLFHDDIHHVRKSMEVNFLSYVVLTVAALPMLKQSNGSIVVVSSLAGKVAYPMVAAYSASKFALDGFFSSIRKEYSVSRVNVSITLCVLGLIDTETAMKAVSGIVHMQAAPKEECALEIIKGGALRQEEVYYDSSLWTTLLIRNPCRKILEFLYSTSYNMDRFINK

As to `CCOCCn1nc(-c2ccccc2)c2c(N)ncnc21` [MT13], the results for the IC50 (at c-Fyn-wt (setting [4]); in data set [1] (setting [5])) were 5000 nM and more than 20000 nM, respectively.
With `CNc1ncnc2c1c(-c1cc(C)cc(O)c1)cn2C(C)C` [SD2, 3-(7-isopropyl-4-methylamino-7H-pyrrolo[2,3-d]pyrimidin-5-yl)-5-methyl-phenol], in data set [1] (read-out: anti-CBR IC50), the IC50 is 3040 nM.
For the compound `CC(C)(C)n1nc(Cc2cccc(O)c2)c2c(N)ncnc21` [RB01], the results for the IC50 (at c-Fyn-wt (setting [4]); in data set [1] (setting [5])) were 1200 nM and more than 20000 nM, respectively.
For the compound `CC(C)n1cc(-c2cc(O)cc(Br)c2)c2c(Cl)ncnc21` [SD5, 3-bromo-5-(4-chloro-7-isopropyl-7H-pyrrolo[2,3-d]pyrimidin-5-yl)-phenol], the results for the IC50 in data set [1] (setting [5]) and in data set [1] (read-out: anti-CBR IC50) were 28 nM and 27 nM, respectively.
For `CNc1ncnc2c1c(-c1cc(O)cc(Br)c1)cn2C(C)C` [SD1, 3-bromo-5-(7-isopropyl-4-methylamino-7H-pyrrolo[2,3-d]pyrimidin-5-yl)-phenol], the IC50 in data set [1] (read-out: anti-CBR IC50) was 220 nM.
In the case of `CC(C)n1cc(-c2cccc(O)c2)c2c(N(Cc3ccccc3)Cc3ccccc3)ncnc21` [RB09, 3-(4-dibenzylamino-7-isopropyl-7H-pyrrolo[2,3-d]pyrimidin-5-yl)-phenol], in data set [1] (setting [5]), the IC50 was more than 20000 nM.
With `CC(C)n1nc(-c2cccc(O)c2)c2c(N)ncnc21` [RB02], the figures for the IC50 (on c-Fyn-wt (setting [4]); in data set [1] (setting [5])) were 11 nM and 1000 nM, respectively. The “killing of adenocarcinoma cells in culture” value with adenocarcinoma cells is “kill adenocarcinoma cells in culture”. In data set [1], the “CBR inhibition compared with AB129” value is given as “comparable to AB129”.
With `CC(C)n1cc(-c2cc(O)cc(C(C)(C)C)c2)c2c(Cl)ncnc21` [SD7, 3-tert-butyl-5-(4-chloro-7-isopropyl-7H-pyrrolo[2,3-d]pyrimidin-5-yl)-phenol], the IC50 in data set [1] (read-out: anti-CBR IC50) came to 376 nM.
As for `CC1(C)[C@@H](O[C@H]2O[C@H](C(=O)O)[C@@H](O)[C@H](O)[C@H]2O[C@@H]2O[C@H](C(=O)O)[C@@H](O)[C@H](O)[C@H]2O)CC[C@]2(C)[C@H]3C(=O)C=C4[C@@H]5C[C@@](C)(C(=O)O)CC[C@]5(C)CC[C@@]4(C)[C@]3(C)CC[C@@H]12` [glycyrrhizic acid], at 11β-HSD1, the IC50 was 40 nM.
For the compound `CC(C)(C)n1nc(-c2cccc(N)c2)c2c(N)ncnc21` [AB060], the IC50 at c-Fyn-wt (setting [4]) was 50 nM; in data set [1] (setting [5]) it was more than 20000 nM. The “cell killing in human lung cancer cell line A549” value (shortened to “cell killing”) in data set [2] is listed as “mild to severe cell killing”.
For the compound `CNc1ncnc2c1c(-c1cc(O)cc(C(F)(F)F)c1)cn2C(C)C` [SD4, 3-(7-Isopropyl-4-methylamino-7H-pyrrolo[2,3-d]pyrimidin-5-yl)-5-trifluoromethyl-phenol], the concentration for half-maximal inhibition (IC50) in data set [1] (read-out: anti-CBR IC50) was 416 nM.
Regarding `CNc1ncnc2c1c(-c1cccc(O)c1)cn2CCC(=O)OC(C)(C)C` [RB10, tert-Butyl 3-(5-(3-hydroxyphenyl)-4-(methylamino)-4aH-pyrrolo[2,3-d]pyrimidin-7(7aH)-yl)propanoate], in data set [1] (read-out: anti-CBR IC50), the IC50 was 1150 nM.
Still for that read-out and setting: the result for `Cc1cc(O)cc(-c2cn(C(C)C)c3ncnc(Cl)c23)c1` [SD6, 3-(4-chloro-7-isopropyl-7H-pyrrolo[2,3-d]pyrimidin-5-yl)-5-methyl-phenol] reads 193 nM.
Regarding `CC(C)(C)n1nc(-c2ccccc2)c2c(N)ncnc21` [AB001], the IC50 on c-Fyn-wt (setting [4]) was 110 nM; in data set [1] (setting [5]), more than 20000 nM.
In the case of `CC(C)(C)n1nc(-c2ccc(F)c(O)c2)c2c(N)ncnc21` [MS01], the IC50 on c-Fyn-wt (setting [4]) came out at 3 nM; in data set [1] (setting [5]), 1000 nM.
For the compound `COc1cccc2c1C(=O)c1c(O)c3c(c(O)c1C2=O)C[C@@](O)(C(C)=O)C[C@@H]3O[C@H]1C[C@H](N)[C@H](O)[C@H](C)O1` [daunorubicin, reference compound], the “loss of viability of A549 cells” value in data set [2] (daunorubicin single agent, 0.8 μM) is 15%.
Regarding `CNc1ncnc2c1c(-c1cccc(O)c1)cn2CCC(=O)O` [RB11, 3-(5-(3-hydroxyphenyl)-4-(methylamino)-4aH-pyrrolo[2,3-d]pyrimidin-7(7aH)-yl)propanoic acid], the IC50 in data set [1] (read-out: anti-CBR IC50) amounted to 220 nM.
Regarding `CNc1ncnc2c1c(-c1cccc(N)c1)cn2C(C)C` [RB07, [5-(3-amino-phenyl)-7-isopropyl-7H-pyrrolo[2,3-d]pyrimidin-4-yl]-methyl-amine], in data set [1] (setting [5]), the IC50 is more than 20000 nM.
In the case of `CC(C)n1cc(-c2cccc(O)c2)c2c(NCc3ccccc3)ncnc21` [RB08, 3-(4-benzylamino-7-isopropyl-7H-pyrrolo[2,3-d]pyrimidin-5-yl)-phenol], the IC50 turned out to be 20000 nM on c-Fyn-wt (read-out: anti-Fyn IC50) and 4400 nM in data set [1] (read-out: anti-CBR IC50).
Turning to `CNc1ncnc2c1c(-c1cc(O)cc(C(C)(C)C)c1)cn2C(C)C` [SD3, 3-tert-Butyl-5-(7-isopropyl-4-methylamino-7H-pyrrolo[2,3-d]pyrimidin-5-yl)-phenol], in data set [1] (read-out: anti-CBR IC50), the IC50 stood at 7650 nM.
In the case of `Cc1ccc(-c2nn(C(C)(C)C)c3ncnc(N)c23)cc1` [PP1, reference compound], the “A549 cells in G2/M phase” value in data set [3] was “approximately 5.6%”. Besides, in data set [2], the “cell killing” value is given as “not”. Besides, in data set [1], the IC50 was more than 20000 nM. The “inhibition of CBR1” value in data set [1] (at a concentration as high as 16 μM) was “did not inhibit”; in data set [1] (in vitro assay, CBR1 expressed in bacteria), “does not inhibit”.
`CC(C)(C)n1nc(Cc2ccc(O)cc2)c2c(N)ncnc21` [RB03]: the IC50 on c-Fyn-wt (setting [4]) is approximately 20000 nM; in data set [1] (setting [5]), more than 20000 nM.
For the compound `CC(C)(C)n1nc(-c2ccc(N)cc2)c2c(N)ncnc21` [AB061], the IC50 was 50 nM on c-Fyn-wt (setting [4]) and more than 20000 nM in data set [1] (setting [5]). Moreover, in data set [2], the “cell killing” value was “mild to severe cell killing”.
In the case of `CC(C)n1cc(-c2cccc(O)c2)c2c(N)ncnc21` [RB05, 3-(4-amino-7-isopropyl-7H-pyrrolo[2,3-d]pyrimidin-5-yl)-phenol], the IC50 on c-Fyn-wt (setting [4]) worked out at 12 nM; in data set [1] (setting [5]), 760 nM. In addition, in the data set on adenocarcinoma cells, the “killing of adenocarcinoma cells in culture” value was “kill adenocarcinoma cells in culture”. In data set [1], the “CBR inhibition compared with AB129” value is recorded as “comparable to AB129”.
In the case of `CC(C)(C)n1nc(Cc2ccccc2O)c2c(N)ncnc21` [RB04], the half-maximal inhibitory concentration (IC50) on c-Fyn-wt (setting [4]) was 120 nM; in data set [1] (setting [5]) it was more than 20000 nM.
Consider `CNc1ncnc2c1c(-c1cccc(O)c1)cn2C(C)C` [RB06], for which the figures for the IC50 (on c-Fyn-wt (setting [4]); in data set [1] (setting [5])) were 70000 nM and 590 nM, respectively. Further, on c-Fyn-wt (predicted, versus AB129), the “fold less potent as an inhibitor of Fyn” value is listed as more than 100 fold. For the same compound, the “CBR inhibition compared with AB129” value in data set [1] is listed as “equipotent”.
For the compound `CC(C)n1cc(-c2cc(O)cc(C(F)(F)F)c2)c2c(Cl)ncnc21` [SD8, 3-(4-Chloro-7-isopropyl-7H-pyrrolo[2,3-d]pyrimidin-5-yl)-5-trifluoromethyl-phenol], the IC50 in data set [1] (read-out: anti-CBR IC50) was determined as 67 nM.
As for `CCOCCn1nc(-c2cccc(O)c2)c2c(N)ncnc21` [MT15], the half-inhibitory concentration (IC50) came out at 200 nM at c-Fyn-wt (setting [4]) and 930 nM in data set [1] (setting [5]).

Values taken from patent US7429596B2, “1H-pyrrolo [2,3-D] pyrimidine derivatives and methods of use thereof” (The Regents of the University of California, priority 2003, dated 2008).
